Results taken from PMC6107105, “Update on drug development targeting parasite cysteine proteases” (PLoS Neglected Tropical Diseases, 2018).

Legend:
dogs = assay: 7-day non-GLP toxicity study in dogs (SRI study M138-00); format: in vivo; settings: orally as solid in gelatin capsules, 100 mg/kg daily for 7 days, 2 dogs
rats = assay: 7-Day non-GLP Toxicity Study in Rats (SRI study M587-08); format: in vivo; settings: 50 or 150 mg/Kg/day for 7 days
Sprague-Dawley rats [1] = assay: Acute intravenous non-GLP toxicity study in rats (SRI study M001-98); format: in vivo; settings: male and female Sprague-Dawley rats
Sprague-Dawley rats [2] = assay: 14-day GLP toxicity study in Sprague-Dawley rats (SRI study M602-08); format: in vivo
cynomolgus monkeys = assay: Pilot multiple dose safety/pharmacokinetic 7-day non-GLP study in cynomolgus monkeys (SRI study M158-01); format: in vivo; settings: 200 mg/Kg once daily for 7 days
[3] = parameters: species or system NHPs; settings: in vivo, 200 mg/kg

For `CN1CCN(C(=O)N[C@@H](Cc2ccccc2)C(=O)N[C@H](/C=C/S(=O)(=O)c2ccccc2)CCc2ccccc2)CC1.Cl` [K777 HCl], the mortality or morbidity (dogs) was “K777 HCl was administered orally as a solid in gelatin capsules to 2 dogs (1 male and 1 female) at 100 mg/kg daily for 7 days. No mortality or morbidity was observed in this study”, the tolerability (rats; male and female rats, SRI study M587-08) was “well tolerated” and the “liver effects at the doses employed” value (rats; rats) was “mild and transient”. The “target organ of toxicity” value (rats; rats) was “liver”, the “dose producing mortality and adverse clinical signs” value (Sprague-Dawley rats [1]) was “K777 HCl administered IV to male and female Sprague-Dawley rats produced mortality and adverse clinical signs at 150 mg/Kg and higher” and the “mortality or treatment-related adverse clinical signs” value (Sprague-Dawley rats [2]; 14-day, any dose level, SRI study M602-08) was “No mortality or treatment-related adverse clinical signs were observed following the administration of K777 HCl at any dose level”. For the same molecule, the “changes in clinical chemistry parameters (total protein, potassium, phosphorus, creatinine increases; blood urea nitrogen decrease)” value (Sprague-Dawley rats [2]; rat, in vivo) was “not considered biologically significant”, the “effects on hematology, urinalysis, or ophthalmology parameters” value (Sprague-Dawley rats [2]; rat, in vivo) was “no treatment-related adverse effects” and the histopathology (Sprague-Dawley rats [2]; rat, in vivo) was “No treatment-related histopathological abnormalities”. The mortality or morbidity (cynomolgus monkeys) was “No mortality or morbidity was observed following the administration of K777 HCl at 200 mg/Kg once daily for 7 days”, the AUC [3] was 32500 ng·h/mL and the Cmax [3] was 4500 ng/mL. For the same molecule, the Tmax [3] was 4 h and the half-life [3] was ~4 h.
